In PubChem BioAssay (NCI):
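Where inhibition never reached the appropriate level, the endpoint shown equals the highest concentration tested. Otherwise, values were interpolated linearly from a five-concentration, 48-hour dose response in 96-well plates. GI50: concentration for 50% inhibition of growth. The concentration for full growth arrest is given as TGI.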

Assays:
Experiment in all cases: DTP human tumour cell line panel, 48 h
[1] = tested on: SK-MEL-2 melanoma
[2] = tested on: RXF 393 renal
[3] = tested on: NCI-H226 lung
[4] = tested on: UACC-62 melanoma
[5] = tested on: SN12C renal
[6] = tested on: OVCAR-5 ovarian
[7] = tested on: COLO 205 colon
[8] = tested on: LOX IMVI melanoma
[9] = tested on: HCC-2998 colon
[10] = tested on: OVCAR-8 ovarian

SMILES | TGI [1] [µM] | TGI [2] [µM] | TGI [3] [µM] | TGI [4] [µM] | TGI [5] [µM] | TGI [6] [µM] | TGI [7] [µM] | TGI [8] [µM] | TGI [9] [µM] | TGI [10] [µM] | GI50 [1] [µM] | GI50 [2] [µM] | GI50 [3] [µM] | GI50 [4] [µM] | GI50 [5] [µM] | GI50 [6] [µM] | GI50 [7] [µM] | GI50 [8] [µM] | GI50 [9] [µM] | GI50 [10] [µM]
C=C1c2[nH]c3ccccc3c2C2C(CC)C1CCN2C (centres undefined) | > 100 | > 100 | > 100 | > 100 | > 100 | > 100 | 58.9 | > 100 | 37.8 | > 100 |  |  |  |  |  |  |  |  |  | 
N#CC(C#N)N=Nc1ccc(Br)cc1 | 36.1 | 14 | 27 | 10.9 | 9.51 | > 72.6 | 3.25 | 16.5 | 33.1 | 33.4 | 8.97 | 3.63 | 4.63 | 1.91 | 2.64 | 4.8 | 1.43 | 3.75 | 8.04 | 3.67
Nc1nc2cc3ccc(C4CC(O)C(CO)O4)cc3cc2c(=O)[nH]1 (centres undefined) | > 100 | > 100 | > 100 | > 100 | > 100 | > 100 | > 100 | > 100 | > 100 | > 100 | 0.0927 | > 100 | > 100 | > 100 | > 100 | > 100 | > 100 | > 100 | > 100 | > 100
CC(=O)C1C(=O)NC(=O)C1=O (centres undefined) | > 100 | > 100 | > 100 | > 100 | > 100 | > 100 | > 100 | > 100 | > 100 | > 100 |  |  |  |  |  |  |  |  |  | 
C[C@@H]1Cc2c([nH]c3ccccc23)[C@@H](c2c(F)cc(NC3CN(CCCF)C3)cc2F)N1CC(F)(F)CO | 16.5 | 17 | 25.8 | 5.77 | 23.1 | 27.9 | 5.71 | 3.49 | 4 | 33 | 4.37 | 4.38 | 7.71 | 2.35 | 9.69 | 14.1 | 2.35 | 1.75 | 1.93 | 11.7
O=Cc1ccc(-c2ccc(-c3nc4ccccc4o3)cc2)s1 | > 100 | > 100 | 90.2 | 98.8 | 81.3 | > 100 | > 100 | 36 | > 100 | > 100 | 63.4 | 49.4 | 31.5 | 30.7 | 29.4 | 78.4 | 32.1 | 16.7 | 45.2 | 35
COC(=O)CCC(=O)Nc1cc(Cl)ccc1Cl | > 100 | 65.8 | > 100 | > 100 | > 100 | > 100 |  | > 100 | > 100 | > 100 |  |  |  |  |  |  |  |  |  | 
